Measured values: US20240148821A1, “PHARMACEUTICAL USE OF CYCLIC PEPTIDE COMPOUND” (CHUGAI SEIYAKU KABUSHIKI KAISHA, priority 2021, published 2024)
Numbered stars: 1 amine (or outer) side, 2 acyl side, 3 side chain; on linkers, the order of the positions; unused ones are H or OH. Bridge positions count the residues as written; N and C are the ends. Square brackets hold non-standard residues; d marks the D form. Peptide text beside a SMILES is read from it. * marks the point of attachment. hPhe(3,5-F2-4-CF3) = N[C@@H](CCc1cc(F)c(C(F)(F)F)c(F)c1)C(=O)O; hPhe(3-Cl-4-CF3) = N[C@@H](CCc1ccc(C(F)(F)F)c(Cl)c1)C(=O)O; NEtPhe(4-CF3) = CCN[C@@H](Cc1ccc(C(F)(F)F)cc1)C(=O)O; hPhe(4-CF3) = N[C@@H](CCc1ccc(C(F)(F)F)cc1)C(=O)O; NMePhe(4-Cl) = CN[C@@H](Cc1ccc(Cl)cc1)C(=O)O; NMePhe(4-Me) = CN[C@@H](Cc1ccc(C)cc1)C(=O)O; NMedβ3hAla = C[C@H](CC(=O)[*:2])N(C)[*:1]; NMeGly(cPent) = CN[C@H](C(=O)O)C1CCCC1; Pro(4,4-F2) = O=C(O)[C@@H]1CC(F)(F)CN1; dβ3hPip = O=C(C[C@H]1CCCCN1[*:1])[*:2]; NMeChg = CN[C@H](C(=O)O)C1CCCCC1; NMeF = CN[C@@H](Cc1ccccc1)C(=O)O; NMeI = CC[C@H](C)[C@H](NC)C(=O)O; NMeD = CN[C@@H](CC(=O)O)C(=O)O; NMeL = CN[C@@H](CC(C)C)C(=O)O; NMeV = CN[C@H](C(=O)O)C(C)C; d(β3hA) = C[C@@H](N)CC(=O)O; NMeA = CN[C@@H](C)C(=O)O; Piperidide = C1CCN(*)CC1; Pyrrolidide = C1CCN(*)C1; Ac5c = NC1(C(=O)O)CCCC1; Aze = O=C(O)[C@@H]1CCN1; Ac4c = NC1(C(=O)O)CCC1; NBuGly = CCCCNCC(=O)O; Sar = CNCC(=O)O

Biological target: protein-protein interaction between Kras and SOS1 (biotin-tagged human Kras loaded with GDP, His-tagged human SOS1) (Homo sapiens (Human), UniProt P01116, G12D)
Experiment: Protein-protein interaction inhibition between Kras and SOS1 (KrasG12D-SOS PPI) using AlphaScreen;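 further: kras produced in E. coli, Ni-coupled donor beads and streptavidin acceptor beads, excitation 680 nm with emission detected at 520–620 nm via singlet oxygen transfer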
Assay type: biochemical
Settings: AlphaScreen; biotin-tagged human Kras loaded with GDP, His-tagged human SOS1; read-out: KRAS G12D-SOS PPI IC50

In order of falling IC50:
1. CC[C@H](C)[C@@H]1NC(=O)[C@H](C)N(C)C(=O)C[C@@H](C)N(C)C(=O)[C@H](CC(C)C)NC(=O)[C@H](Cc2ccccc2)N(C)C(=O)[C@H](CC(C)C)NC(=O)[C@H](CCc2ccc(C(F)(F)F)cc2)NC(=O)CN(C)C(=O)[C@H](Cc2ccc(Cl)cc2)N(C)C(=O)CN(C)C(=O)CN(C)C1=O [Compound 214] (cyclo(I[Sar][Sar][NMePhe(4-Cl)][Sar][hPhe(4-CF3)]L[NMeF]L[NMedβ3hAla][NMeA]))  280 nM
2. CC[C@H](C)[C@@H]1NC(=O)[C@H](C(C)C)N(C)C(=O)C[C@H]2CCCCN2C(=O)[C@H](CC(C)C)N(C)C(=O)C2(CCCC2)NC(=O)[C@H](CC(C)C)N(C)C(=O)[C@H](CCc2ccc(C(F)(F)F)cc2)NC(=O)CN(C)C(=O)[C@H](Cc2ccc(Cl)cc2)N(C)C(=O)CN(C)C(=O)CN(C)C1=O [Compound 189] (cyclo([Ac5c][NMeL][dβ3hPip][NMeV]I[Sar][Sar][NMePhe(4-Cl)][Sar][hPhe(4-CF3)][NMeL]))  110 nM
3. CC[C@H](C)[C@@H]1NC(=O)[C@H](CC(C)C)N(C)C(=O)C[C@@H](C)N(C)C(=O)[C@H](C2CCCCC2)N(C)C(=O)C2(CCC2)NC(=O)[C@@H]2CC(F)(F)CN2C(=O)[C@H](CCc2cc(F)c(C(F)(F)F)c(F)c2)NC(=O)CN(C)C(=O)[C@H](Cc2ccc(C(F)(F)F)cc2)N(CC)C(=O)[C@@H]2CCN2C(=O)[C@H](C)NC1=O [Compound 203] (cyclo(A[Aze][NEtPhe(4-CF3)][Sar][hPhe(3,5-F2-4-CF3)][Pro(4,4-F2)][Ac4c][NMeChg][NMedβ3hAla][NMeL]I))  31 nM
4. CCCCN1CC(=O)N(C)[C@@H]([C@@H](C)CC)C(=O)N(C)[C@H](C(=O)N(C)C)CC(=O)N(C)[C@@H](CC(C)C)C(=O)N[C@@H]([C@@H](C)CC)C(=O)N(C)[C@@H](C)C(=O)N2CC[C@H]2C(=O)N(C)[C@@H](Cc2ccc(C)cc2)C(=O)N(C)CC(=O)N[C@@H](CCc2ccc(C(F)(F)F)c(Cl)c2)C(=O)N2CCC[C@H]2C1=O [Compound 215] ([NMeL]I[NMeA][Aze][NMePhe(4-Me)][Sar][hPhe(3-Cl-4-CF3)]P[NBuGly][NMeI][NMeD]-NMe2; lactam N-11)  29 nM
5. CC[C@H](C)[C@@H]1NC(=O)[C@H](CC(C)C)N(C)C(=O)C[C@@H](C)NC(=O)[C@H](C(C)C)N(C)C(=O)C2(CCCC2)NC(=O)[C@@H]2CCCN2C(=O)[C@H](CCc2ccc(C(F)(F)F)c(Cl)c2)NC(=O)CN(C)C(=O)[C@H](Cc2ccc(Cl)cc2)N(C)C(=O)[C@@H]2CCN2C(=O)CN(C)C1=O [Compound 207] (cyclo([Ac5c][NMeV][d(β3hA)][NMeL]I[Sar][Aze][NMePhe(4-Cl)][Sar][hPhe(3-Cl-4-CF3)]P))  3 nM
6. CC[C@H](C)[C@@H]1NC(=O)[C@H](CC(C)C)N(C)C(=O)C[C@@H](C(=O)N2CCCCC2)N(C)C(=O)[C@H](C2CCCC2)N(C)C(=O)C2(CCCC2)NC(=O)[C@@H]2CCCN2C(=O)[C@H](CCc2ccc(C(F)(F)F)c(Cl)c2)NC(=O)CN(C)C(=O)[C@H](C2CCCC2)N(C)C(=O)[C@@H]2CCN2C(=O)[C@H](C)N(C)C1=O [Compound 182] ([NMeL]I[NMeA][Aze][NMeGly(cPent)][Sar][hPhe(3-Cl-4-CF3)]P[Ac5c][NMeGly(cPent)][NMeD]-Piperidide; lactam N-11)  0.98 nM
7. CC[C@H](C)[C@@H]1NC(=O)[C@H](CC(C)C)N(C)C(=O)C[C@@H](C(=O)N2CCCC2)N(C)C(=O)[C@H](C2CCCC2)N(C)C(=O)C2(CCCC2)NC(=O)[C@@H]2CCCN2C(=O)[C@H](CCc2ccc(C(F)(F)F)c(Cl)c2)NC(=O)CN(C)C(=O)[C@H](C2CCCC2)N(C)C(=O)[C@@H]2CCN2C(=O)[C@H](C)N(C)C1=O [Compound 201] ([NMeL]I[NMeA][Aze][NMeGly(cPent)][Sar][hPhe(3-Cl-4-CF3)]P[Ac5c][NMeGly(cPent)][NMeD]-Pyrrolidide; lactam N-11)  0.58 nM
